Measurements taken from patent publication US10961211B2, “Isotopically-stabilized tetronimide compounds” (Midwestern University, priority 2019, dated 2021).

Assay: LCMS analysis of deuterium/hydrogen exchange in solution
Format: physicochemical
Conditions: NMR sample in dmso-d6, standing at room temperature
Experimental: A sample of rac-1 (440 mg, 1.07 mmol) was stirred in THF (10 mL) in the presence of K2CO3 (645 mg, 4.69 mmol; 4.4 eq.) and D2O (1.77 g, 88.5 mmol; 82.6 eq.) at room temperature. The reaction progress was monitored by LCMS and Mass analysis. After 9 days a sample was taken and concentrated under reduced pressure to give 96-100% pure (LCMS, UV 215 and 254 nm respectively) racemic 1-d3 (38.9 mg) according to ^1H-NMR analysis. […] Calcd. for C18H11D3F3NO5S M: 416.39

Structure (SMILES): NC1=C(OS(=O)(=O)Cc2ccccc2)C(=O)C(c2ccc(C(F)(F)F)cc2)O1 (racemic) [Compound 1-d3, 2-amino-4-oxo-5-(4-(trifluoromethyl)phenyl)-4,5-dihydrofuran-3-yl phenylmethanesulfonate]
- deuterium/hydrogen exchange (isotopic stability): deuterium loss took place in dmso-d6
